What is called IC50 is the point on the concentration scale where inhibition reaches its midpoint.

The subject of data set [1] is human synovial cells (HFLS). Put plainly: Anti-proliferative effect on synovial cells stimulated by TNF-α ([3H]-deoxyuridine uptake). It counts as cell-based. The note with it: TNF-α 10 ng/mL, 5 days culture, concentration calculated as MTX from conjugation rate. The source says: An effect of the HA-MTX conjugates of the invention on cell proliferation induced by TNF-α stimulation was examined using human synovial cells (HFLS). The main lesion in rheumatoid arthritis (RA) occurs in the synovial tissue, and, as one of the features, it is known that synovial cells abnormally proliferate to form a granulation tissue (pannus) and thereby destroy the cartilage and bone of the joint. Secondary synovitis is also observed in osteoarthritis (OA). […] Thus, a compound inhibiting the proliferation of synovial cells stimulated by the inflammatory cytokine TNF-α suppresses the progression of the pathologic conditions of RA and OA and becomes a therapeutic drug therefor. The sterile aqueous solutions of the HA-MTX conjugates in Example 2 (Table 2) were used as test substances. HFLS (CA40405, Lot Nos. 1413 and 1493) was purchased from Cell Applications Ins. for use. HFLS was seeded at 5,000 cells/well on a 96-well plate (Falcon) and cultured for 3 hours in Iscove's modified Dulbecco's medium (IMDM) containing 5% FBS and 1× Antibiotic-Antimycotic (GIBOC). After cellular attachment, TNF-α (final concentration: 10 ng/mL) and each HA-MTX conjugate at each concentration was added, followed by cultivation for 5 days. Two days before the end of culture, was added 37 kBq/well of [^3H]-deoxyuridine in the cells (MORAVEK), followed by determining the uptake quantity (radioactivity) of [^3H]-deoxyuridine using a scintillation counter. Cells were recovered by unsticking them with 0.05% trypsin-0.2% EDTA. Radioactivity determined in each of the experiments with each test substance was calculated as a relative value (% of control), using, as control, radioactivity in the group of cells cultured without adding any test substance. […] GraphPad Prism 3.02).

Data set [2] relates to mBSA-induced monoarthritis model. The data set can be described thus: Suppressive effect on knee joint swelling in mBSA-induced monoarthritis model. It counts as in vivo, rat. Particulars: for AUC (% of control) (mean ± SEM): AUC of knee joint swelling to two weeks after induction, control = HA-treated group, 50 μL into right knee joint 7 and 1 day before and 7 days after induction. As to the method:
An in vivo synovitis-suppressing effect of each HA-MTX conjugate of the invention was assessed on the basis of a suppressive effect on knee joint swelling in a methylated bovine serum albumin (mBSA)-induced monoarthritis model of rat. Since the mBSA-induced arthritis model employed in this experimental example is widely used as an antigen-induced arthritis model, and known to develop synovitis (Sven E. Andersson, et al., The Journal of Rheumatology (1998) 25: 9, 1772-7), the in vivo knee joint swelling-suppressing effect observed in this model conceivably represents a synovitis-suppressing effect. The compounds of the invention suppressing synovitis in vivo are useful as therapeutic drugs for joint diseases accompanied by synovitis (RA, OA, and the like).
The animal used was the LEW/Crj rat (6-week old male, from Charles River Laboratories Japan, Inc.). Into the flank of the rat was subcutaneously injected 0.5 mL of an emulsion prepared from a 2 mg/mL mBSA (Calbiochem) aqueous solution and an equal amount of Freund's complete adjuvant (Difco) 21 and 14 days before inducing arthritis. The arthritis was induced by administering 50 μL of a 2 mg/mL mBSA aqueous solution into the right knee joint. The left knee joint was untreated, and served as control in each individual. Each test substance (sterile aqueous solution) and the control drug hyaluronic acid were each administered into the right knee joint in an amount of 50 μL 7 and 1 day before and 7 days after inducing arthritis.
The determination of knee joint swelling involved measuring the widths of both knee joints with calipers to define the left/right difference (right knee diameter-left knee diameter) as a knee joint swelling. The width of each knee joint was measured at a frequency of twice a week from immediately before inducing arthritis to two weeks later to calculate AUC (an abbreviation for Area Under the Curve; here, it means an area under a curve with time for the joint swelling) from the transition thereof with time. At each measurement, the mean and standard deviation of AUC were calculated to perform an unpaired t-test between each test substance-treated group and the HA-treated group, and significant difference was judged to be present if the probability level is less than 5%. Statistical analysis used SAS version 6.12 (SAS Institute Japan). In addition, the AUC of each test substance was calculated, using that in the HA-treated group as a control, as a relative value (% of control) therefor.
To verify the usefulness of the HA-MTX conjugate of the invention, the suppressive effect on joint swelling was compared, in accordance with the method of Example 3, among: 1) a group treated with the HA-MTX conjugate (sterile aqueous solution) prepared in Example 2-2; 2) a group treated with a solution containing MTX of an amount equal to that of MTX contained in the HA-MTX conjugate; and 3) a group of treated with a mixture (HA+MTX) of MTX and hyaluronic acid (HA) of amounts equal to those contained in the conjugate. The transition of knee joint swelling with time in this test is shown in FIG. 2, and the AUC thereof in FIG. 3.

The nature of data set [3]: Measurement of viscoelasticity. It counts as physicochemical. Particulars: sterile solutions, 37° C., cone 4 cm, CSL500 stress-controlled rheometer; FIG. 1. As to the method: The viscoelasticities of the sterile solutions of hyaluronic acids (molecular weights: 1,900,000 and 800,000) and the conjugates of Examples 2-1, 2-8, 2-18, 2-27, and 2-29 were measured at 37° C. using a cone 4 cm in diameter by a CSL500 stress-controlled rheometer (from Carri-Med Ltd.).

On to `CN(Cc1cnc2nc(N)nc(N)c2n1)c1ccc(C(=O)N[C@@H](CCC(=O)O)C(=O)O)cc1` [MTX alone, methotrexate], for which the IC50 in data set [1] is 0.055 µM. The “suppressive effect on joint swelling / alleviating effect on synovitis” value in data set [2] (Experimental Example 4: conjugate vs equal amount of MTX vs mixture HA+MTX, FIGS. 2 and 3) is “neither MTX alone nor the mixture of HA and MTX had a sufficient alleviating effect on synovitis”. Regarding “MTX-α-AsnPhePhe-NHC10H20O3NH-HA [Example 2-47]”, the IC50 in data set [1] was 1.1 µM. The “AUC (% of control) (mean ± SEM)” value in data set [2] is reported as 42.1 ± 6.3 % of control. With MTX-α-Glu-NHC2H4NH-HA [Example 2-30], the IC50 in data set [1] is 54 µM. Moreover, in data set [2], the “AUC (% of control) (mean ± SEM)” value is 58.3 ± 7.4 % of control.

Consider “MTX-α-Glu-NHC10H20O3NH-HA [Example 2-29]”, for which the IC50 in data set [1] is 8.4 µM. Moreover, in data set [3], the viscoelasticity entry was “viscoelasticities intermediate between those of the hyaluronic acids having molecular weights of 800,000 and 1,900,000”. In addition, the “AUC (% of control) (mean ± SEM)” value in data set [2] was 68.8 ± 6.7 % of control. Regarding “MTX-α-His-NHC10H20O3NH-HA [Example 2-36]”, the IC50 in data set [1] was 17 µM. Turning to MTX-α-Ile-NHC2H4NH-HA [Example 2-28], the half-maximal inhibitory concentration (IC50) in data set [1] is 12 µM. The “AUC (% of control) (mean ± SEM)” value in data set [2] is listed as 63.5 ± 4.7 % of control. For “MTX-α-Leu-NHC10H20O3NH-HA [Example 2-34]”, the IC50 in data set [1] was 3.6 µM. For the molecule “MTX-α-Phe-NHC10H20O3NH-HA [Example 2-26]”, the half-maximal inhibitory concentration (IC50) in data set [1] was 1.7 µM. As to “MTX-α-PheGly-NHC4H8ONH-HA [Example 2-22]”, the IC50 in data set [1] was 3 µM. Turning to “MTX-α-PheGly-NHC6H12O2NH-HA [Example 2-21]”, the IC50 in data set [1] was 0.83 µM. In addition, in data set [2], the “AUC (% of control) (mean ± SEM)” value is reported as 47.4 ± 8.8 % of control.

“MTX-α-PheGly-NHC8H16O2NH-HA [Example 2-20]”: the IC50 in data set [1] was 18 µM. The “AUC (% of control) (mean ± SEM)” value in data set [2] is 65.3 ± 9.6 % of control. Turning to “MTX-α-PheGly-NHC10H20O2NH-HA [Example 2-19]”, the IC50 in data set [1] is 5.4 µM.

For “MTX-α-PheGly-NHC10H20O3NH-HA [Example 2-15]”, in data set [1], the IC50 is 0.48 µM. On the same count and under the same terms, in the case of “MTX-α-PheGly-NHC10H20O3NH-HA [Example 2-16]” it was 13 µM.

As for “MTX-α-PheGly-NHC10H20O3NH-HA [Example 2-17]”, the IC50 in data set [1] was 13 µM. Besides, the “AUC (% of control) (mean ± SEM)” value in data set [2] is 56.1 ± 8.2 % of control. In the case of MTX-α-PhePhe-Lys-HA [Example 2-14], the half-maximal inhibitory concentration (IC50) in data set [1] is 15 µM. In data set [2], the “AUC (% of control) (mean ± SEM)” value was 54.3 ± 7.4 % of control. The matching figures for MTX-α-PhePhe-NHC2H4NH-HA [Example 2-2′]: 0.72 µM and 65.5 ± 7.5 % of control. Regarding MTX-α-PhePhe-NHC2H4NH-HA [Example 2-3], the “AUC (% of control) (mean ± SEM)” value in data set [2] is reported as 76.2 ± 7.7 % of control. As for MTX-α-PhePhe-NHC2H4NH-HA [Example 2-4], the IC50 in data set [1] was 11 µM. In data set [2], the “AUC (% of control) (mean ± SEM)” value is listed as 69.0 ± 6.5 % of control. For MTX-α-PhePhe-NHC2H4NH-HA [Example 2-5], in data set [1], the IC50 is 1.1 µM. Further, the “AUC (% of control) (mean ± SEM)” value in data set [2] is on record as 51.7 ± 3.8 % of control. In the same order, the values of MTX-α-PhePhe-NHC2H4NH-HA [Example 2-6] are 0.091 µM and 41.6 ± 7.6 % of control.

In the case of MTX-α-PhePhe-NHC2H4NH-HA [Example 2-7], the “AUC (% of control) (mean ± SEM)” value in data set [2] was 46.5 ± 4.8 % of control. As for “MTX-α-PhePhe-NHC4H80NH-HA [Example 2-12]”, in data set [1], the IC50 is 0.3 µM.

“MTX-α-PhePhe-NHC5H10NH-HA [Example 2-13]”: the IC50 in data set [1] was 1.5 µM. Moreover, in data set [2], the “AUC (% of control) (mean ± SEM)” value is listed as 60.5 ± 9.9 % of control. As to “MTX-α-PhePhe-NHC6H12O2NH-HA [Example 2-11]”, in data set [1], the IC50 was 0.25 µM. For the molecule “MTX-α-PhePhe-NHC8H16O2NH-HA [Example 2-10]”, in data set [1], the IC50 was 1.2 µM. In data set [2], the “AUC (% of control) (mean ± SEM)” value is given as 63.7 ± 9.1 % of control. Consider “MTX-α-PhePhe-NHC10H20O2NH-HA [Example 2-9]”, for which the IC50 in data set [1] is 1.3 µM. Still for that read-out and setting: the figure for “MTX-α-PhePhe-NHC10H20O3NH-HA [Example 2-49]” is 13 µM; for “MTX-α-PhePro-NHC10H20O3NH-HA [Example 2-23]” it is 12 µM; for “MTX-α-PheβAla-NHC2H4NH-HA [Example 2-25]” it is 0.29 µM. On to “MTX-α-PheβAla-NHC10H20O3NH-HA [Example 2-24]”, for which, in data set [1], the IC50 was 3.5 µM. As for “MTX-α-Ser-NHC10H20O3NH-HA [Example 2-33]”, the IC50 in data set [1] was 36 µM. On the same count and under the same terms, the figure for “MTX-α-Trp-NHC10H20O3NH-HA [Example 2-32]” is 4.7 µM. On to “MTX-α-Tyr-NHC10H20O3NH-HA [Example 2-31]”, for which the IC50 in data set [1] is 7 µM. In data set [2], the “AUC (% of control) (mean ± SEM)” value is on record as 67.7 ± 6.2 % of control. For the molecule “MTX-α-Val-NHC10H20O3NH-HA [Example 2-35]”, the IC50 in data set [1] is 11 µM. “MTX-α-βAla-NHC10H20O3NH-HA [Example 2-38]”: in data set [2], the “AUC (% of control) (mean ± SEM)” value is given as 69.3 ± 4.2 % of control. On to “MTX-α/γ-GlyPheLeuGly-NHC10H20O3NH-HA (methotrexate-GFLG-{NHC10H20O3NH-hyaluronic acid}; also: methotrexate linked via α- or γ-carboxyl) [Example 2-48]”, for which the IC50 in data set [1] is 1.3 µM. In addition, the “AUC (% of control) (mean ± SEM)” value in data set [2] is 58.8 ± 11.6 % of control. “MTX-γ-PheGly-NHC10H20O3NH-HA [Example 2-42]”: the IC50 in data set [1] is 14 µM. For the molecule “MTX-γ-PhePhe-NHC4H8ONH-HA [Example 2-41]”, the “AUC (% of control) (mean ± SEM)” value in data set [2] is on record as 67.1 ± 8.3 % of control. “MTX-γ-PhePhe-NHC10H20O3NH-HA [Example 2-39]”: the IC50 in data set [1] was 3.2 µM.

Source of the values: patent US8088916B2, “Hyaluronic acid-methotrexate conjugate” (priority 2004, dated 2012).
